Test results as given in the NIST ThermoML archive (doi:10.1021/acs.jced.5b00845).
Numbers after ± are expanded uncertainties.

Test: mn = molality of the nth substance listed, in mol/kg
Conditions: 100 kPa, Liquid, Capillary tube (Ostwald / Ubbelohde) method

OC[C@H]1O[C@@](CO)(O[C@H]2O[C@H](CO)[C@@H](O)[C@H](O)[C@H]2O)[C@@H](O)[C@@H]1O [D-sucrose] + O
viscosity [mPa·s]
Conditions	m1 = 0.05768	m1 = 0.06994	m1 = 0.07682	m1 = 0.08384	m1 = 0.09221	m1 = 0.1103	m1 = 0.1237	m1 = 0.1437
288.15 K	1.205 ± 0.12	1.219 ± 0.12	1.227 ± 0.12	1.235 ± 0.12	1.244 ± 0.12	1.265 ± 0.13	1.28 ± 0.13	1.302 ± 0.13
298.15 K	0.941 ± 0.094	0.951 ± 0.095	0.957 ± 0.096	0.963 ± 0.096	0.97 ± 0.097	0.986 ± 0.099	0.997 ± 0.1	1.014 ± 0.1
308.15 K	0.758 ± 0.076	0.766 ± 0.077	0.771 ± 0.077	0.776 ± 0.078	0.781 ± 0.078	0.793 ± 0.079	0.802 ± 0.08	0.815 ± 0.082
318.15 K	0.627 ± 0.063	0.634 ± 0.064	0.637 ± 0.064	0.641 ± 0.064	0.645 ± 0.065	0.655 ± 0.066	0.662 ± 0.066	0.672 ± 0.067

O=C[C@H](O)[C@H](O)[C@H](O)CO [D-ribose] + O
viscosity [mPa·s]
Conditions	m1 = 0.05682	m1 = 0.06586	m1 = 0.07814	m1 = 0.09455	m1 = 0.1051	m1 = 0.1285
288.15 K	1.159 ± 0.12	1.163 ± 0.12	1.168 ± 0.12	1.174 ± 0.12	1.178 ± 0.12	1.187 ± 0.12
298.15 K	0.906 ± 0.091	0.909 ± 0.091	0.912 ± 0.091	0.917 ± 0.092	0.919 ± 0.092	0.926 ± 0.093
308.15 K	0.731 ± 0.073	0.733 ± 0.073	0.736 ± 0.074	0.739 ± 0.074	0.741 ± 0.074	0.746 ± 0.075
318.15 K	0.605 ± 0.061	0.607 ± 0.061	0.609 ± 0.061	0.612 ± 0.061	0.614 ± 0.062	0.618 ± 0.062

OC[C@H]1O[C@H](OC[C@H]2O[C@H](O[C@]3(CO)O[C@H](CO)[C@@H](O)[C@@H]3O)[C@H](O)[C@@H](O)[C@@H]2O)[C@H](O)[C@@H](O)[C@H]1O [D-raffinose] + O
viscosity [mPa·s]
Conditions	m1 = 0.0515	m1 = 0.06262	m1 = 0.08002	m1 = 0.09691	m1 = 0.1085	m1 = 0.1133	m1 = 0.1273	m1 = 0.1387
288.15 K	1.227 ± 0.12	1.246 ± 0.12	1.275 ± 0.13	1.303 ± 0.13	1.322 ± 0.13	1.33 ± 0.13	1.353 ± 0.14	1.371 ± 0.14
298.15 K	0.957 ± 0.096	0.971 ± 0.097	0.993 ± 0.099	1.014 ± 0.1	1.028 ± 0.1	1.034 ± 0.1	1.051 ± 0.11	1.065 ± 0.11
308.15 K	0.771 ± 0.077	0.782 ± 0.078	0.799 ± 0.08	0.816 ± 0.082	0.827 ± 0.083	0.831 ± 0.083	0.845 ± 0.085	0.855 ± 0.086
318.15 K	0.637 ± 0.064	0.646 ± 0.065	0.659 ± 0.066	0.672 ± 0.067	0.681 ± 0.068	0.684 ± 0.069	0.695 ± 0.07	0.703 ± 0.07

OC[C@H]1O[C@@H](O[C@H]2[C@H](O)[C@@H](O)[C@H](O)O[C@@H]2CO)[C@H](O)[C@@H](O)[C@@H]1O [D-cellobiose] + O
viscosity [mPa·s]
Conditions	m1 = 0.0502	m1 = 0.06216	m1 = 0.07229	m1 = 0.08229	m1 = 0.09269	m1 = 0.1031	m1 = 0.1292	m1 = 0.152
288.15 K	1.19 ± 0.12	1.202 ± 0.12	1.212 ± 0.12	1.222 ± 0.12	1.233 ± 0.12	1.243 ± 0.12	1.269 ± 0.13	1.291 ± 0.13
298.15 K	0.929 ± 0.093	0.938 ± 0.094	0.946 ± 0.095	0.953 ± 0.095	0.961 ± 0.096	0.969 ± 0.097	0.988 ± 0.099	1.005 ± 0.1
308.15 K	0.749 ± 0.075	0.756 ± 0.076	0.762 ± 0.076	0.768 ± 0.077	0.774 ± 0.078	0.78 ± 0.078	0.795 ± 0.08	0.808 ± 0.081
318.15 K	0.62 ± 0.062	0.625 ± 0.063	0.63 ± 0.063	0.635 ± 0.064	0.64 ± 0.064	0.644 ± 0.065	0.656 ± 0.066	0.666 ± 0.067
